# Reference: patent US11285227B2, “Trifunctional constructs with tunablepharmacokinetics useful in imaging and anti-tumor therapies” (CORNELL UNIVERSITY, priority 2017, dated 2022)
# Like-named read-outs stand apart in the source and are kept apart here. Marks after values point to notes of the source that are not given here.
# Experiments:
# [1] = system: LNCaP xenograft tumor-bearing mice; assay: Biodistribution studies of 177Lu-labeled ligands in LNCaP xenograft mice; format: in vivo; settings: for Max. Tumor Uptake: corresponding 177Lu-labeled compound
# Protocol: (§1) Inoculation of mice with xenografts: All animal studies were approved by the Institutional Animal Care and Use Committee of Weill Cornell Medicine and were undertaken in accordance with the guidelines set forth by the USPHS Policy on Humane Care and Use of Laboratory Animals. Animals were housed under standard conditions in approved facilities with 12 h light/dark cycles. Food and water was provided ad libitum throughout the course of the studies. Hairless male nu/nu mice were purchased from the Jackson Laboratory. For inoculation in mice, LNCaP cells were suspended at 4×10^7 cells/mL in a 1:1 mixture of PBS:Matrigel (BD Biosciences). Each mouse was injected in the left flank with 0.25 mL of the cell suspension. The mice were imaged when the tumors reached approximately 200-400 mm^3, while biodistributions were conducted when tumors were in the range 100-400 mm^3.
# Biodistribution studies of ^177Lu-labeled ligands in LNCaP xenograft mice: LNCaP xenograft tumor-bearing mice (5 per time point per compound) were injected intravenously with a bolus injection of 348-851 kBq (9.4-23 μCi) and 37-50 ng (23-25 pmol) of each ligand. The mice were sacrificed at 4, 24 and 96 h post injection. A blood sample was removed, and a full biodistribution study was conducted on the following organs (with contents): heart, lungs, liver, small intestine, large intestine, stomach, spleen, pancreas, kidneys, muscle, bone and tumor. Tissues were weighed and counted on a 2470 Wizard^2 Automatic Gamma Counter (Perkin Elmer). Counts were corrected for decay and for activity injected, and tissue uptake was expressed as percent injected dose per gram (% ID/g). Standard error measurement was calculated for each data point.
# PSMA on LNCaP cells = PSMA on LNCaP cells (Homo sapiens, UniProt Q04609); assay: Multi-concentration competitive binding assay against 99mTc-MIP-1427 (Section 1.3); design: host or cells: LNCaP
# Protocol: Cell Culture: The PSMA expressing human prostate cancer cell line, LNCaP, was obtained from the American Type Culture Collection. Cell culture supplies were obtained from Invitrogen unless otherwise noted. LNCaP cells were maintained in RPMI-1640 medium supplemented with 10% fetal bovine serum (Hyclone), 4 mM L-glutamine, 1 mM sodium pyruvate, 10 mM N-2-hydroxyethylpiperazine-N-2-ethanesulfonic acid (HEPES), 2.5 mg/mL D-glucose, and 50 μg/mL gentamicin in a humidified incubator at 37° C./5% CO2. Cells were removed from flasks for passage or for transfer to 12-well assay plates by incubating them with 0.25% trypsin/ethylenediaminetetraacetic acid (EDTA).
# In vitro determination of IC50: IC50 values of the non-labeled, metal-free ligands were determined by screening in a multi-concentration competitive binding assay against ^99mTc-((7S,12S,16S)-1-(1-(carboxymethyl)-1H-imidazol-2-yl)-2-((1-(carboxymethyl)-1H-imidazol-2-yl)methyl)-9,14-dioxo-2,8,13,15-tetraazaoctadecane-7,12,16,18-tetracarboxylic acid technetium tricarbonyl complex) (^99mTc-MIP-1427) for binding to PSMA on LNCaP cells, according to previously described methods [18,19] with small modifications. Briefly, LNCaP cells were plated 48 h prior to the experiment to achieve a density of approximately 5×10^5 cells/well (in triplicate) in RPMI-1640 medium supplemented with 0.25% bovine serum albumin. The cells were incubated for 2 h with 1 nM ^99mTc-MIP-1427 in serum-free RPMI-1640 medium in the presence of 0.001-10,000 nM test compounds. Radioactive incubation media was then removed by pipette and the cells were washed twice using 1 mL ice-cold PBS 1× solution. Cells were harvested from the plates following treatment with 1 mL 1M NaOH and transferred to tubes for radioactive counting using a 2470 Wizard^2 Automatic Gamma Counter (Perkin Elmer). Standard solutions (10% of activity added to each well) were prepared to enable decay correction. IC50 values were determined by fitting the data points to a sigmoidal Hills1 curve in Origin software.
# [2] = system: LNCaP xenograft tumor-bearing mice; assay: Dosimetry (dose integrals from 177Lu biodistribution); format: in vivo; settings: over the 96 h
# Protocol: Dosimetry: The dosimetry was calculated assuming a linear interpolation between the three time points. The average injected dose per organ was calculated by using the average of the activity and organ weights of the mice at that time point. Intermediate time points at every 4 hours were generated using the linear approximation and all time points were corrected for decay during the time interval between points. These curves were integrated using a trapezoidal approximation and the sum used to determine the residence time.
# [3] = C57BL/6 mice, tail vein, 10-50 kBq; 15 min, 1 h, 5 h
# Protocol: C57BL/6 mice were injected via tail vein with 10-50 kBq of each radiometal complex and were sacrificed after 15 min, 1 h, or 5 h.
# [4] = system: LNCaP xenograft tumor-bearing mice; assay: µPET/CT imaging of 66Ga-RPS ligands in LNCaP xenograft mice; format: in vivo
# Protocol: as §1
# Imaging of ^66Ga-RPS ligands in LNCaP xenograft mice: LNCaP xenograft tumor-bearing mice (2-3 per compound) injected intravenously with a bolus injection of 0.56-5.4 MBq (15-145 μCi) of the ^66Ga-labeled ligand. The specific activity of the tracers was in the range 14.8-47 MBq/pmol (0.4-1.27 mCi/pmol). The mice were imaged using μPET/CT (Inveon™; Siemens Medical Solutions, Inc.) at 1, 3, 6 and 24 h post-injection following inhalation anesthetization with isoflurane. Total acquisition time was 30 min for the 1 h, 3 h and 6 h images, and 60 min for 24 h time point. A CT scan was obtained immediately before the acquisition for both anatomical co-registration and attenuation correction. Images were reconstructed using the Inveon™ software supplied by the vendor. Image-derived tumor and kidney uptake was estimated by comparison to a 10% injected dose per cubic mm (% ID/mm^3) standard introduced into the imaging field of view. The standard was prepared by dilution of 10% of the injected activity to 1 mL with saline. Volumes of interest (VOIs) were drawn with the aid of the CT and confirmed by PET. The contents of the VOIs were integrated and the calculated counts were converted to % ID/mm^3 by direct comparison to the aforementioned standard following correction for activity injected.
# [5] = non-labeled, metal-free ligands, competitive binding in LNCaP cells vs 1 nM 99mTc-MIP-1427, 2 h, read-out: IC50
# Sequence of PSMA on LNCaP cells (Q04609 whole entry): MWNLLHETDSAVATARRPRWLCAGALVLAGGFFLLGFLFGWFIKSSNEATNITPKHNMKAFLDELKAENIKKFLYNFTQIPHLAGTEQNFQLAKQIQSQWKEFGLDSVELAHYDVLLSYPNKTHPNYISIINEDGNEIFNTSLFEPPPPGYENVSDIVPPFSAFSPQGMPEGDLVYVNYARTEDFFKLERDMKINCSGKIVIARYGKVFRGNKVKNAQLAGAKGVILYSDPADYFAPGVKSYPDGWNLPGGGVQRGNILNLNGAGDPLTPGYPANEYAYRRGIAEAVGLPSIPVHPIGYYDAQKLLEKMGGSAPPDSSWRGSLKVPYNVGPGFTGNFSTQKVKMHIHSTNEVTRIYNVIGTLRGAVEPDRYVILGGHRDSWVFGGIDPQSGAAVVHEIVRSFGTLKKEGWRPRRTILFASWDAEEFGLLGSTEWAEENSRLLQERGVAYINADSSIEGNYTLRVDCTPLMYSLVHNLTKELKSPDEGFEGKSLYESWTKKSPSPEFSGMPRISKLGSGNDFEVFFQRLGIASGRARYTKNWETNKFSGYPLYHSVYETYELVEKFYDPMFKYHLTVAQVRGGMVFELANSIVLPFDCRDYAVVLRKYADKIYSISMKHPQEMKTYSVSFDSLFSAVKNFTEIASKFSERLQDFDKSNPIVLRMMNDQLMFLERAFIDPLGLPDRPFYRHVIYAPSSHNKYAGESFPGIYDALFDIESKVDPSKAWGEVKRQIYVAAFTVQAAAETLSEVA
smiles,measurement,setting,value
"O=C(O)CC[C@H](NC(=O)N[C@@H](CCCCNC(=O)Nc1cccc(-c2cn(CCOCCOCCOCCOCCOCCOCCC(=O)N[C@@H](CCCCNC(=S)Nc3ccc(CC4CN(CC(=O)O)CCN(CC(=O)O)CCN(CC(=O)O)CCN4CC(=O)O)cc3)C(=O)N[C@@H](CCCCNC(=O)Cc3ccc(I)cc3)C(=O)O)nn2)c1)C(=O)O)C(=O)O (stereo partly drawn) [RPS-069, (((1S)-1-carboxy-5-(3-(3-(1-((23S,26S)-26-carboxy-33-(4-iodophenyl)-21,24,32-trioxo-23-(4-(3-(4-((1,4,7,10-tetrakis(carboxymethyl)-1,4,7,10-tetraazacyclododecan-2-yl)methyl)phenyl)thioureido)butyl)-3,6,9,12,15,18-hexaoxa-22,25,31-triazatritriacontyl)-1H-1,2,3-triazol-4-yl)phenyl)ureido)pentyl)carbamoyl)-L-glutamic acid]",Max. Tumor Uptake,[1]; a = 4 h p.i.,17.0 % ID/g
same,IC50,PSMA on LNCaP cells; [5],3.8 nM
"O=C(O)CCC(NC(=O)NC(CCCCNC(=O)C(Cc1ccc2ccccc2c1)NC(=O)C1CCC(CNC(=O)CN2CCN(CC(=O)O)CCN(CC(=O)O)CCN(CC(=O)O)CC2)CC1)C(=O)O)C(=O)O (stereo not drawn) [^177Lu-PSMA-617, metal not drawn, reference compound]",Kidney uptake,[1]; 4 h p.i.,14.1±3.1 % ID/g
same,Tumor uptake,[1]; 4 h p.i.,14.4±1.1 % ID/g
same,Tumor uptake,[1]; 96 h p.i.,3.5±0.3 % ID/g
same,Tumor-to-kidney ratio,[1]; 96 h p.i.,14.39±2.2
same,Ratio of tumor dose integral to kidney dose integral,[2],1.95
"O=C(O)CC[C@H](NC(=O)N[C@@H](CCCCNC(=O)Nc1cccc(-c2cn(CCOCCOCCOCCOCCOCCOCCOCCOCCC(=O)N[C@@H](CCCCNC(=S)Nc3ccc(CC4CN(CC(=O)O)CCN(CC(=O)O)CCN(CC(=O)O)CCN4CC(=O)O)cc3)C(=O)N[C@@H](CCCCNC(=O)Cc3ccc(I)cc3)C(=O)O)nn2)c1)C(=O)O)C(=O)O (stereo partly drawn) [RPS-066, (((1S)-1-carboxy-5-(3-(3-(1-((29S,32S)-32-carboxy-39-(4-iodophenyl)-27,30,38-trioxo-29-(4-(3-(4-((1,4,7,10-tetrakis(carboxymethyl)-1,4,7,10-tetraazacyclododecan-2-yl)methyl)phenyl)thioureido)butyl)-3,6,9,12,15,18,21,24-octaoxa-28,31,37-triazanonatriacontyl)-1H-1,2,3-triazol-4-yl)phenyl)ureido)pentyl)carbamoyl)-L-glutamic acid]",Max. Tumor Uptake,[1]; a = 4 h p.i.,18.7 % ID/g
same,IC50,PSMA on LNCaP cells; [5],5.2 nM
"O=C(O)CC[C@H](NC(=O)N[C@@H](CCCCNC(=O)Nc1cccc(-c2cn(CCOCCOCCOCCOCCC(=O)N[C@@H](CCCCNC(=S)Nc3ccc(CC4CN(CC(=O)O)CCN(CC(=O)O)CCN(CC(=O)O)CCN4CC(=O)O)cc3)C(=O)N[C@@H](CCCCNC(=O)Cc3ccc(I)cc3)C(=O)O)nn2)c1)C(=O)O)C(=O)O (stereo partly drawn) [RPS-061, (((1S)-1-carboxy-5-(3-(3-(1-((17S,20S)-20-carboxy-27-(4-iodophenyl)-15,18,26-trioxo-17-(4-(3-(4-((1,4,7,10-tetrakis(carboxymethyl)-1,4,7,10-tetraazacyclododecan-2-yl)methyl)phenyl)thioureido)butyl)-3,6,9,12-tetraoxa-16,19,25-triazaheptacosyl)-1H-1,2,3-triazol-4-yl)phenyl)ureido)pentyl)carbamoyl)-L-glutamic acid]",Max. Tumor Uptake,[1]; a = 4 h p.i.,20.4 % ID/g
same,IC50,PSMA on LNCaP cells; [5],4.1 nM
"O=C([O-])CN1CCN(CC(=O)[O-])CCN(CC(=O)[O-])CCN(CC(=O)[O-])CC1.[225Ac+3] [[^225Ac(DOTA)]^−, reference compound]",Biodistribution profile (clearance),[3],appeared to clear more rapidly through the urine
"O=C(O)CC[C@H](NC(=O)N[C@@H](CCCCNC(=O)Nc1cccc(-c2cn(CCOCCOCCOCCC(=O)N[C@@H](CCCCNC(=S)Nc3ccc(CC4CN(CC(=O)O)CCN(CC(=O)O)CCN(CC(=O)O)CCN4CC(=O)O)cc3)C(=O)N[C@@H](CCCCNC(=O)Cc3ccc(I)cc3)C(=O)O)nn2)c1)C(=O)O)C(=O)O (stereo partly drawn) [RPS-063, (((1S)-1-carboxy-5-(3-(3-(1-((14S,17S)-17-carboxy-24-(4-iodophenyl)-12,15,23-trioxo-14-(4-(3-(4-((1,4,7,10-tetrakis(carboxymethyl)-1,4,7,10-tetraazacyclododecan-2-yl)methyl)phenyl)thioureido)butyl)-3,6,9-trioxa-13,16,22-triazatetracosyl)-1H-1,2,3-triazol-4-yl)phenyl)ureido)pentyl)carbamoyl)-L-glutamic acid]",Max. Tumor Uptake,[1]; a = 4 h p.i.,30.0 % ID/g
same,IC50,PSMA on LNCaP cells,1.5 ± 0.3 nM
"O=C(O)CCC(NC(=O)NC(CCCCNC(=O)Nc1cccc(-c2cnnn2CC(=O)NC(CCCCNC(=S)Nc2ccc(CC3CN(CC(=O)O)CCN(CC(=O)O)CCN(CC(=O)O)CCN3CC(=O)O)cc2)C(=O)NC(CCCCNC(=O)Cc2ccc(I)cc2)C(=O)O)c1)C(=O)O)C(=O)O (stereo not drawn) [^66Ga-RPS-068, metal not drawn]",Kidney uptake (image-derived),[4]; 24 h post injection,1.9±0.3 % ID/cm^3
same,Maximum tumor uptake (image-derived),[4]; maximum at 3 h post injection,9.7±2.0 % ID/cm^3
"O=C(O)CCC(NC(=O)NC(CCCCNC(=O)C(Cc1ccc2ccccc2c1)NC(=O)C1CCC(CNC(=O)CN2CCN(CC(=O)O)CCN(CC(=O)O)CCN(CC(=O)O)CC2)CC1)C(=O)O)C(=O)O (stereo not drawn) [PSMA-617, reference compound]",Max. Tumor Uptake,[1]; a = 4 h p.i.,14.4 ± 2.5 % ID/g
same,IC50,PSMA on LNCaP cells; [5],6.6 ± 0.7 nM
"O=C(O)CCC(NC(=O)NC(CCCCNC(=O)C(Cc1ccc2ccccc2c1)NC(=O)C1CCC(CNC(=O)CN2CCN(CC(=O)O)CCN(CC(=O)O)CCN(CC(=O)O)CC2)CC1)C(=O)O)C(=O)O (stereo not drawn) [^66Ga-PSMA-617, metal not drawn, reference compound]",Tumor uptake (image-derived),[4]; 24 h post injection,1.1±0.4 % ID/cm^3
same,Maximum tumor uptake (image-derived),[4]; maximum at 1 h post injection,3.1±0.4 % ID/cm^3
"O=C(O)CC[C@H](NC(=O)N[C@@H](CCCCNC(=O)Nc1cccc(-c2cnnn2CC(=O)N[C@@H](CCCCNC(=S)Nc2ccc(CC3CN(CC(=O)O)CCN(CC(=O)O)CCN(CC(=O)O)CCN3CC(=O)O)cc2)C(=O)N[C@@H](CCCCNC(=O)Cc2ccc(I)cc2)C(=O)O)c1)C(=O)O)C(=O)O (stereo partly drawn) [RPS-068, (((1S)-1-carboxy-5-(3-(3-(1-(2-(((2S)-1-(((S)-1-carboxy-5-(2-(4-iodophenyl)acetamido)pentyl)amino)-1-oxo-6-(3-(4-((1,4,7,10-tetrakis(carboxymethyl)-1,4,7,10-tetraazacyclododecan-2-yl)methyl)phenyl)thioureido)hexan-2-yl)amino)-2-oxoethyl)-1H-1,2,3-triazol-5-yl)phenyl)ureido)pentyl)carbamoyl)-L-glutamic acid]",Max. Tumor Uptake,[1]; b = 24 h p.i.,26.9 ± 2.0^b % ID/g
same,IC50,PSMA on LNCaP cells; [5],2.1 ± 0.1 nM
O=C([O-])c1cccc(CN2CCOCCOCCN(Cc3cccc(C(=O)[O-])n3)CCOCCOCC2)n1.[225Ac+3] [[^225Ac(macropa)]^+],Biodistribution profile (clearance),[3],"rapidly cleared from mice, with very little activity measured in blood by 1 h post injection"
same,Organ accumulation / in vivo stability of the complex,[3],did not accumulate in any organ
